Measurements: patent publication US20170164607A1, “METHODS OF EXTENDING THE SHELF LIFE OF SUGARCANE STEM SECTIONS AND COATED SUGARCANE STEM SECTIONS” (Syngenta Participations AG, priority 2014, published 2017)
Read-outs that look alike come from different tables or passages of the source.

How the values were obtained:
sugarcane stem sections [1] = conditions: for Avg. Germ / Avg. Height: evaluated seven days after planting
Protocol: Sugarcane stem sections having a diameter of approximately […] and a length of approximately 50 mm were generated (e.g., cut) from sugarcane stalks. One set of cut sugarcane stem section were dipped into the coating compositions for a dwell time of about 60 seconds, and subsequently allowed to dry at room temperature (i.e., about 30° C. Another set of control sugarcane stem sections were not coated and remained at room temperature (i.e., about 30° C.) (i.e., identified below as “No AgNO3”). The coated and control uncoated sugarcane stem sections were then planted as is (i.e., these stem sections are identified below as “Day Zero”) or stored for a period of time up to three weeks in an air tight jar at room temperature (i.e., about 30° C.). Following storage, the coated and control uncoated sugarcane stem sections were then germinated in biochamber boxes. All coated and control uncoated sugarcane stem sections were germinated in a growth chamber and evaluated seven days after planting.

sugarcane stem sections [2] = conditions: 300, 600 and 1200 μMol AgNO3; storage up to three weeks in air-tight jars at 16° C.; biochamber boxes or potted soil trays; FIGS. 2-7
Source text: Sugarcane stem sections (i.e., two varieties: CP 88-1762 and CP00-1101) having a diameter of approximately 25-30 mm and a length of approximately 50 mm were cut and coated (or left uncoated) as described in Example 1 using coating compositions having AgNO3 concentrations of 0, 300, 600 and 1200 μMol of AgNO3. The coated and control uncoated sugarcane stem sections were then planted as is or stored for a period of time up to three weeks in one gallon air-tight jars (i.e., about 20 coated sugarcane stem sections per jar) at 16° C. Following storage, the coated and control uncoated sugarcane stem sections were then germinated in either biochamber boxes or potted soil trays (i.e., 5 jars each) or both. All coated and control uncoated sugarcane stem sections were planted and evaluated as follows: germination rates were taken in the biochamber boxes at 3, 5, and 7 days after removal from the jars: germination rates were taken in the potted trays at 10, 12, and 14 days after removal from the jars.

[3] = test system: sugarcane stem sections of CP88-762; conditions: 14 days after planting
Source text: Sugarcane stem sections of CP88-762 having a diameter of approximately 25-30 mm and a length of approximately 50 mm were cut and treated with a standard treatment slurry or a standard treatment slurry containing AgNO3 at a final concentration of 600 μMol of AgNO3 as described in Example 3. The AgNO3 treated and control (without AgNO3) sugarcane stem sections were then planted as is or stored for an extended period of time up to 42 days in storage containers as shown at FIG. 1 (i.e., storage containers that allow gas transfer between an interior and so exterior of the storage container) at a storage temperature of 10° C. Following storage, the AgNO3 treated and control sugarcane stem sections were planted in trays of potting soil and placed in a greenhouse as described in example 3. All sugarcane stem sections were evaluated for germination and shoot growth at 14 days after planting.

[4] = test system: sugarcane stem sections of CP88-1762
Source text: Sugarcane stem sections of CP88-1762 having a diameter of approximately 25-30 mm and a length or approximately 50 mm were coated with a standard treatment slurry (designated control treatment) or treated with the standard treatment slurry which also contained AgNO3 at a concentration of 600 μMol of AgNO3 (designated as AgNO3 treatment). The AgNO3 treated and control sugarcane stem sections were then planted as is or stored for a period of time up to three weeks in storage containers as shown in FIG. 1 (i.e., storage containers that allow gas transfer between an interior and an exterior of the storage container) at storage temperatures ranging from 10° C. to 22° C. Following storage, the AgNO3 treated and control sugarcane stem sections were planted in trays of potting soil and placed in a greenhouse. The trays were watered daily to maintain moisture and the greenhouse maintained at 26/20 C maximum/minimum temperatures with 15 hours light. Growth and germination of all AgNO3 treated and control sugarcane stem sections were evaluated at 7, 14, and 21 days after removal from storage containers.

[5] = 200 μMol AgNO3, 2 weeks storage in air tight jar at about 30° C.
[6] = 200 μMol AgNO3, 3 weeks storage in air tight jar at about 30° C.
[7] = 400 μMol AgNO3, 2 weeks storage in air tight jar at about 30° C.
[8] = 400 μMol AgNO3, 3 weeks storage in air tight jar at about 30° C.
[9] = 600 μMol AgNO3, 2 weeks storage in air tight jar at about 30° C.
[10] = 600 μMol AgNO3, 3 weeks storage in air tight jar at about 30° C.
[11] = after a weeks of storage in an air-tight jar (3 weeks rows of Table 1)
[12] = 600 μMol AgNO3 in standard treatment slurry, storage up to three weeks at 10° C. to 22° C. in gas-permeable containers, FIGS. 8-9

O=[N+]([O-])[O-].[Ag+] [AgNO3, silver nitrate]
germination compared to the control "no AgNO3" sample (sugarcane stem sections [1]; 200 μmol concentration, 2 weeks of storage in an air-tight jar): increased germination | Avg. Germ (sugarcane stem sections [1]; [5]): 83.33% | Avg. Height (sugarcane stem sections [1]; [5]): 51.38 mm | Avg. Germ (sugarcane stem sections [1]; [6]): 52.50% | Avg. Height (sugarcane stem sections [1]; [6]): 42.91 mm | Avg. Germ (sugarcane stem sections [1]; [7]): 52.38% | Avg. Height (sugarcane stem sections [1]; [7]): 39.66 mm | Avg. Germ (sugarcane stem sections [1]; [8]): 45.00% | Avg. Height (sugarcane stem sections [1]; [8]): 30.53 mm | Avg. Germ (sugarcane stem sections [1]; [9]): 61.90% | Avg. Height (sugarcane stem sections [1]; [9]): 40.79 mm | Avg. Germ (sugarcane stem sections [1]; [10]): 87.50% | Avg. Height (sugarcane stem sections [1]; [10]): 55.19 mm | germination over the control "non-AgNO3" samples (sugarcane stem sections [1]; [11]): improved germination | plant height over the control "non-AgNO3" samples (sugarcane stem sections [1]; [11]): improved | germination rates compared to the standard slurry applied sugarcane stem sections (sugarcane stem sections [2]): improved germination rates | germination rate ([3]; 600 μMol AgNO3, after 6 weeks storage at 10° C., FIG. 11): 68% | germination rates compared to control sugarcane stem sections ([3]; 600 μMol AgNO3 in standard treatment slurry, throughout the 42 days of storage at 10° C., FIG. 11): improved germination rates | plant vitality (as measured by plant height) compared to control sugarcane stem sections ([3]; 600 μMol AgNO3 in standard treatment slurry, throughout the 42 days of storage at 10° C., FIG. 12): improved | stem section germination ([4]; 600 μMol AgNO3, 7 through 21 days storage): significant enhancement | shoot lengths ([4]; 600 μMol AgNO3, all storage periods including day 0 planting): significant enhancement | vitality of sugarcane plants compared to plants from control stem sections ([4]; 600 μMol AgNO3, stored for 14 days at 22° C., 28 days after planting, FIG. 10): much more vitality | germination rates compared to control sugarcane stem sections [4, 12]: improved germination rates | plant vitality (as measured by plant height) compared to control sugarcane stem sections [4, 12]: improved
